Patent publication US7855292B2, “Sulfonamide compounds” (Janssen Pharmaceutica NV, priority 2004, dated 2010)

Columns and labels:
CCK-1 receptor = molecular target: T1, CCK-1 receptor (Homo sapiens, UniProt P32238); assay: CCK1 binding assay ([125I]-BH-CCK-8S displacement, CHO-K1 membranes); conditions: membranes of CHO-K1 cells stably transfected with the CCK-1 receptor, 20 pM [125I]-BH-CCK-8S, 0.3 μM PD-134,308 present, 60 min at 21±3° C.; for Ki: read-out: CCK1 pKi (converted)
T1 construct: expressed in transfected cells; host or cells: CHO-K1
T1 sequence (P32238 1-428): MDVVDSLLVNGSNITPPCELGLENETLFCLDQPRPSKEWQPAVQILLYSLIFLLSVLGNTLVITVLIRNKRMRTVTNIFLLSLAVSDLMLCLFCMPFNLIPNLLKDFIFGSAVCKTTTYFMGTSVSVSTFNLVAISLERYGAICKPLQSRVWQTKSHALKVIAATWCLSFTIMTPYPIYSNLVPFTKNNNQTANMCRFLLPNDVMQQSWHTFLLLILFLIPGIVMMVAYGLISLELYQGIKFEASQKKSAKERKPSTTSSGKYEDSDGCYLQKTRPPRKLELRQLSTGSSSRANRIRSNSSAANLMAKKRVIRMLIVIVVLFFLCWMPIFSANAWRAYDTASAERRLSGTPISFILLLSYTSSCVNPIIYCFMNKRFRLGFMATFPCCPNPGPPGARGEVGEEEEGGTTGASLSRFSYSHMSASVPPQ
Method in brief: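 Membranes from CHO-K1 cells stably expressing CCK-1 incubated 1 h at 21±3° C with 20 pM [125I]-BH-CCK-8S in HEPES buffer pH 7.2 containing 0.3 μM PD-134,308 to block CCK-2. Bound radioactivity read by gamma counting after filtration. pKi derived via Cheng-Prusoff, with specific binding defined using 2-NAP.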

CCK2 receptor = molecular target: T2, CCK2 receptor (Homo sapiens, UniProt P32239); assay: CCK2 binding assay ([125I]-BH-CCK-8S displacement, HEKZFP membranes); conditions: membranes of doxycycline-induced HEKZFP cells, 20 pM [125I]-BH-CCK-8S, 60 min at 21±3° C.; for Ki: read-out: CCK2 pKi (converted)
T2 construct: analyzed for ZFP expression as well as CCK2R induction upon addition of doxycycline to the culture medium; endogenous in cells
T2 sequence (P32239 1-447): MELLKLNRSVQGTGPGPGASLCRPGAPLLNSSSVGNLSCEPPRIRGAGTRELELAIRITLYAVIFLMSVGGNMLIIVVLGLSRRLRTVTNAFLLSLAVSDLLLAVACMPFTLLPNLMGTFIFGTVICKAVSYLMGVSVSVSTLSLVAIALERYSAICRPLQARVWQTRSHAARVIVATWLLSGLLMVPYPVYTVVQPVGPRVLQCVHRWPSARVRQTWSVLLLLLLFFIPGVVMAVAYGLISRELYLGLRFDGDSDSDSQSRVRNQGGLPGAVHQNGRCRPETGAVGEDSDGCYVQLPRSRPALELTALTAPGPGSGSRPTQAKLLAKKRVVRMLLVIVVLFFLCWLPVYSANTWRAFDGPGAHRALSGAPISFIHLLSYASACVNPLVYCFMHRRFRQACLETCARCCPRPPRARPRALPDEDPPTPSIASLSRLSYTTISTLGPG

Cc1ccc(CC(NC(=O)c2ccc(I)cc2NS(=O)(=O)c2cccc3nccnc23)C(=O)O)cc1 (stereo in doubt) [Example 79, (S)-2-[4-Iodo-2-(quinoxaline-5-sulfonylamino)-benzoylamino]-3-p-tolyl-propionic acid]
Ki (CCK-1 receptor): 63.1 nM
Ki (CCK2 receptor): 1260 nM

O=C(N[C@@H](Cc1ccc(Cl)c(Br)c1)C(=O)O)c1ccc(Cl)cc1NS(=O)(=O)c1cccc2nccnc12 [Example 146, (S)-3-(3-Bromo-4-chloro-phenyl)-2-[4-chloro-2-(quinoxaline-5-sulfonylamino)-benzoylamino]-propionic acid]
Ki (CCK-1 receptor): 251 nM
Ki (CCK2 receptor): 25.1 nM

O=C(NCCc1ccc(Cl)cc1Cl)c1ccc(Cl)cc1NS(=O)(=O)c1cccc2nsnc12 [Example 70, 2-(Benzo[1,2,5]thiadiazole-4-sulfonylamino)-4-chloro-N-[2-(2,4-dichloro-phenyl)-ethyl]-benzamide]
Ki (CCK-1 receptor): 200 nM
Ki (CCK2 receptor): 6310 nM

O=C(N[C@H](Cc1ccccc1)C(=O)O)c1ccc(I)cc1NS(=O)(=O)c1c(F)cccc1F [Example 17, (R)-2-[2-(2,6-Difluoro-benzenesulfonylamino)-4-iodo-benzoylamino]-3-phenyl-propionic acid]
Ki (CCK-1 receptor): 79.4 nM
Ki (CCK2 receptor): 2510 nM

O=C(NCCc1ccc(Br)cc1)c1ccc(Cl)cc1NS(=O)(=O)c1c(F)cccc1F [Example 80, N-[2-(4-Bromo-phenyl)-ethyl]-4-chloro-2-(2,6-difluoro-benzenesulfonylamino)-benzamide]
Ki (CCK-1 receptor): 100 nM
Ki (CCK2 receptor): 1580 nM

CC(CNC(=O)c1ccc(I)cc1NS(=O)(=O)c1cccc2nsnc12)c1ccc(Cl)cc1 (stereo not drawn) [Example 72, 2-(Benzo[1,2,5]thiadiazole-4-sulfonylamino)-N-[2-(4-chloro-phenyl)-propyl]-4-iodo-benzamide]
Ki (CCK-1 receptor): 79.4 nM
Ki (CCK2 receptor): 501 nM

COC(=O)[C@H](Cc1ccc(F)c(Br)c1)NC(=O)c1ccc(Cl)cc1NS(=O)(=O)c1cccc2nsnc12 [Example 149, (S)-2-[2-(Benzo[1,2,5]thiadiazole-4-sulfonylamino)-4-chloro-benzoylamino]-3-(3-bromo-4-fluoro-phenyl)-propionic acid methyl ester]
Ki (CCK-1 receptor): 200 nM
Ki (CCK2 receptor): 200 nM

O=C(N[C@H](Cc1ccc(Cl)c(Cl)c1)C(=O)O)c1ccc(I)cc1NS(=O)(=O)c1cccc2nccnc12 [Example 60, (R)-3-(3,4-Dichloro-phenyl)-2-[4-iodo-2-(quinoxaline-5-sulfonylamino)-benzoylamino]-propionic acid]
Ki (CCK-1 receptor): 79.4 nM
Ki (CCK2 receptor): 398 nM

CC(CNC(=O)c1ccc(I)cc1NS(=O)(=O)c1cccc2nsnc12)c1ccc(Cl)c(Cl)c1 (stereo not drawn) [Example 39, 2-(Benzo[1,2,5]thiadiazole-4-sulfonylamino)-N-[2-(3,4-dichloro-phenyl)-propyl]-4-iodo-benzamide]
Ki (CCK-1 receptor): 25.1 nM
Ki (CCK2 receptor): 251 nM

O=C(N[C@H](Cc1ccc(Cl)cc1)C(=O)O)c1cc(Cl)ccc1NS(=O)(=O)c1cccc2nsnc12 [Example 62, (R)-2-[2-(Benzo[1,2,5]thiadiazole-4-sulfonylamino)-5-chloro-benzoylamino]-3-(4-chloro-phenyl)-propionic acid]
Ki (CCK-1 receptor): 316 nM
Ki (CCK2 receptor): 3160 nM

O=C(N[C@@H](Cc1ccc(F)c(Br)c1)C(=O)O)c1ccc(Cl)cc1NS(=O)(=O)c1cccc2nccnc12 [Example 159, (S)-3-(3-Bromo-4-fluoro-phenyl)-2-[4-chloro-2-(quinoxaline-5-sulfonylamino)-benzoylamino]-propionic acid]
CCK1 pKi (CCK-1 receptor): 6.4
CCK2 pKi (CCK2 receptor): 8.0

O=C(N[C@H](Cc1ccc(Cl)cc1)C(=O)O)c1cc(Cl)c(Cl)cc1NS(=O)(=O)c1cccc2nsnc12 [Example 14, (R)-2-[2-(Benzo[1,2,5]thiadiazole-4-sulfonylamino)-4,5-dichloro-benzoylamino]-3-(4-chloro-phenyl)-propionic acid]
Ki (CCK-1 receptor): 12.6 nM
Ki (CCK2 receptor): 316 nM
